Reference: US9771361B2, “Inhibitors of influenza viruses replication” (priority 2013, dated 2017)
Where “and” joins values, the source holds several entries; their conditions need not be identical. Equal values may be shown once. Where a name gives a salt, the structure may show the parent alone. Read-outs that look alike come from different tables or passages of the source. Marks after values point to notes of the source that are not given here.

Legend:
[1] = test system: Influenza A/Vietnam/1203/2004 (H5N1) virus; parameters: species or system BALB/c mice; details: mouse, in vivo
influenza A strains = format: cell-based, influenza A virus
[2] = in vivo
[3] = test system: influenza A/Wisconsin/67/2005 (H3N2) challenge strain virus; parameters: species or system humans; details: human, in vivo
influenza A [4] = test system: influenza A; parameters: species or system mice; details: mouse, in vivo
[5] = test system: influenza A/Wisconsin/67/2005 (H3N2) challenge strain virus; parameters: species or system humans; details: human, in vivo; remark: listed apart in the source
[6] = test system: influenza virus B/Mass/3/66; format: in vivo, Balb/c mice
influenza B virus = format: cell-based
[7] = test system: Influenza A/California/04/2009 (pndH1N1) virus; format: in vivo, BALB/c mice
influenza A [8] = format: in vivo, mice
influenza virus = test system: influenza virus; parameters: species or system mice; details: mouse, in vivo
[9] = human, in vivo
influenza A virus = format: in vivo, mice
[10] = test system: Influenza A/Victoria/3/75 (H3N2) virus; format: in vivo, BALB/c mice
[11] = test system: influenza A/Wisconsin/67/2005 (H3N2) challenge strain virus; parameters: species or system humans; details: human, in vivo; remark: listed apart in the source
[12] = test system: influenza virus A/PR/8/34; format: in vivo, Balb/c mice
[13] = Conversion of free base Form A to hydrated form B with humidity/water activity; format: physicochemical; details: ambient temperature
[14] = Water activity tests: competition slurry of Form A seeded with Form F in IPA/water; format: physicochemical; details: Starting Forms A + F, Water Activity (aw) 0.9, Water wt % 2.80
[15] = Compound (1) 0 mg/kg, Oseltamivir 10 mg/kg, […]
[16] = 10 mg/kg per treatment, twice a day for 10 days starting 2 hours prior to virus exposure
[17] = treatment start +48 h, 10 mg/kg BID
[18] = treatment start +72 h, 10 mg/kg BID

O=C(O)[C@H]1C2CCC(CC2)C1Nc1nc(-c2c[nH]c3ncc(F)cc23)ncc1F (stereo partly shown) [Compound (1)]
protection [1]: complete protection | activity against all influenza A strains tested (influenza A strains): potent activity | liver function abnormalities and serum phosphate decreases [2]: Neither liver function abnormalities nor serum phosphate decreases were observed | AUC viral shedding versus pooled placebo [3]: statistically significant reduction | dose response trend in median AUC viral shedding in nasal swabs [3]: statistically significant dose response trend | improvement over placebo in viral shedding [3]: a similar magnitude of improvement over placebo was not observed | peak viral shedding versus pooled placebo [3]: significant reductions | reduction in lung viral titers (influenza A [4]): robust, statistically significant reductions in lung viral titers | rates of seroconversion versus placebo [5]: no difference | Penh (Day 6/7) ([6]; mouse, in vivo): 1.90 and 2.06 and 2.04 | Survival (21 days) ([6]; mouse, in vivo): 0% | Weight Loss (Day 8) ([6]; mouse, in vivo): 33.6% and 33.9% and 33% | activity against influenza B in vivo ([6]; mouse, in vivo): little activity | interference with the effectiveness of Oseltamivir ([6]; mouse, in vivo): does not interfere with the effectiveness of Oseltamivir | protection against morbidity, BW loss or loss of lung function ([6]; mouse, in vivo): no significant protection against morbidity, BW loss or loss of lung function | activity against influenza B virus (influenza B virus): limited activity | Survivors/Total ([7]; mouse, in vivo): 9/9*** and 10/10*** | survival and BW loss (influenza A [8]; mouse, in vivo): complete survival and a dose-dependent reduction in BW loss | Percent Body Weight Loss on Study Day 8 (influenza A [8]; mouse, in vivo, 0.1 mg/kg): −31.9% | Percent Survival (influenza A [8]; mouse, in vivo, 0.1 mg/kg): 0% | Percent Body Weight Loss on Study Day 8 (influenza A [8]; mouse, in vivo, 0.3 mg/kg): −30.4% | Percent Survival (influenza A [8]; mouse, in vivo, 0.3 mg/kg): 25% | Percent Body Weight Loss on Study Day 8 (influenza A [8]; mouse, in vivo, 1 mg/kg): −16.8% | Percent Survival (influenza A [8]; mouse, in vivo, 1 mg/kg): 100% | Percent Body Weight Loss on Study Day 8 (influenza A [8]; mouse, in vivo, 3 mg/kg): −8.7% | Percent Survival (influenza A [8]; mouse, in vivo, 3 mg/kg): 100% | Percent Body Weight Loss on Study Day 8 (influenza A [8]; mouse, in vivo, 10 mg/kg): −2.8% | Percent Survival (influenza A [8]; mouse, in vivo, 10 mg/kg): 100% | correlation between lung titer reduction and Cmin (influenza virus): clear correlation | discontinuations and serious adverse events [9]: no discontinuations due to Compound (1)-related adverse events (AE) nor were there any serious adverse events | elevations in alanine aminotransferase (ALT) [9]: observed | incidence of decreased blood phosphorus level [9]: 18.1% | incidence of nasal congestion [9]: 1.4% | incidence of rhinorrhea [9]: 4.2% | tolerability [9]: well tolerated | protection (influenza A virus; mouse, in vivo): partial protection | protection from death and BW loss (influenza A virus; mouse, in vivo): complete protection from death and reduced BW loss | survival (influenza A virus; mouse, in vivo): complete survival | Percent Survival (influenza A virus; mouse, in vivo, 1 mg/kg): 100% | Survivors/Total ([10]; mouse, in vivo): 10/10*** | median AUC of influenza-like symptoms versus placebo [11]: statistically significant reduction | median duration of composite clinical symptoms versus placebo [11]: statistically significant reduction | median duration of influenza-like symptoms versus placebo [11]: statistically significant reduction

CCOC(=O)C1=C[C@@H](OC(CC)CC)[C@H](NC(C)=O)[C@@H](N)C1 [Oseltamivir]
Penh (Day 6/7) [6, 15]: 1.08 | Survival (21 days) [6, 15]: 100% | Weight Loss (Day 8) [6, 15]: 12.8% | protection from death, BW loss and lung function ([6]; mouse, in vivo): complete protection from death, reduced BW loss and restored lung function | Survivors/Total [7, 16]: 10/10*** | survival (influenza A [8]; 10 mg/kg BID, same experiment): All of the oseltamivir-administered mice survived | Percent Body Weight Loss on Study Day 8 (influenza A [8]; mouse, in vivo, 10 mg/kg): −19.1% | Percent Survival (influenza A [8]; mouse, in vivo, 10 mg/kg): 100% | Percent Body Weight Loss on Study Day 8 (influenza A virus; mouse, in vivo, 10 mg/kg): −28.9% | Percent Survival (influenza A virus; mouse, in vivo, 10 mg/kg): 100% | Percent Body Weight Loss on Study Day 8 (influenza A virus; [17]): −31.1% | Percent Survival (influenza A virus; [17]): 80% | Percent Body Weight Loss on Study Day 8 (influenza A virus; [18]): −31.3% | Percent Survival (influenza A virus; [18]): 0% | Survivors/Total [10, 16]: 9/10*** | Penh (Day 3) [12, 15]: 2.36 | Survival (21 days) [12, 15]: 0% | Weight Loss (Day 8) [12, 15]: 32.0% | protection from death, BW loss and lung function ([12]; mouse, in vivo): did not protect from death reduce BW loss or restore lung function

O=C(O)[C@H]1C2CCC(CC2)[C@@H]1Nc1nc(-c2c[nH]c3ncc(F)cc23)ncc1F [Form A of Compound (1)]
water activity where the hydrate form (form B) was observed [13]: greater than 0.6

O=C(O)[C@H]1C2CCC(CC2)C1Nc1nc(-c2c[nH]c3ncc(F)cc23)ncc1F (stereo partly shown) [Form A of HCl salt of Compound (1).½H2O]
Final Form [14]: converted to Form F of HCl salt of Compound (1).3H2O
